Measurements from paper PMC4549712, “Inhibition of human GLUT1 and GLUT5 by plant carbohydrate products; insights into transport specificity” (Scientific Reports, 2015).
Entries after “also recorded” stand apart in the source; their conditions may differ.

Legend:
[1] = target: T1, human GLUT1 (Homo sapiens, UniProt P11166); experiment: entrance counter-flow transport assay, GLUT1-mediated glucose transport in proteoliposomes; format: biochemical; conditions: for inhibition of GLUT1 glucose transport activity: 20 mM
T1 construct: Full length DNA was subcloned into pFastBac1 (Life Technologies) vector with a N-terminal hexahistidine tag; hexahistidine (thrombin-cleavable) (N, cleaved yes); made in house; host or cells: Sf21 insect cells (baculovirus, pFastBac1)
T1 sequence (P11166 1-492): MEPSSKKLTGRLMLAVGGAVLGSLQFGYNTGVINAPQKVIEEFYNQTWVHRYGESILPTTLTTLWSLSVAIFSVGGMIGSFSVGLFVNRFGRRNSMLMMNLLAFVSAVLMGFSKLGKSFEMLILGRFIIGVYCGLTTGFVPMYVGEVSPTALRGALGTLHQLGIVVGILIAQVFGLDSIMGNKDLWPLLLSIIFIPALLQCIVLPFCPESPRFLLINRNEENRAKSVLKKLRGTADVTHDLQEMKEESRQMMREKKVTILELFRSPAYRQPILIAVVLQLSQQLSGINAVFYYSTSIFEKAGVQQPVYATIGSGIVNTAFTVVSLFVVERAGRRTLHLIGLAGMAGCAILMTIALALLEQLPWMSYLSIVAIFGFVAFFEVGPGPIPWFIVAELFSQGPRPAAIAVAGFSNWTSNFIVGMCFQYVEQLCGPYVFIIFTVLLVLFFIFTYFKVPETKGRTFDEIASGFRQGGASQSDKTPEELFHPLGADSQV
Experimental: Human GLUT1 and GLUT5 were expressed recombinantly in insect cell culture. The purified proteins were reconstituted into proteoliposomes. To measure the inhibition of GLUT1 or GLUT5 transport activity we used entrance counter-flow transport assay. In GLUT1 and GLUT5 proteoliposomes, substrate transport reached steady state after one minute incubation at room temperature.
(§1) Proteoliposomes were generated according to the protocol from[30] with minor modifications. Liposomes were produced from a 95/5% (w/w) mix of soy phosphatidylcholine and cholesterol (Avanti Polar Lipids). Briefly, hexane-washed and vacuum-dried lipids were resuspended to 20 mg/ml in 100 mM KPi (pH 7.5), and then subjected to 11 freeze-and-thaw cycles in liquid nitrogen and room temperature water. The lipid mixture was extruded through a 0.1 μm polycarbonate filter. Prepared liposomes were destabilized with 4 mM Triton X-100 and mixed with purified protein in a 100:1 (w/w) ratio in 100 mM KPi (pH 7.5) 20% (v/v) glycerol, 200 mM (glucose or fructose). Detergent was removed by several additions of SM2 BioBeads (BioRad) and incubated overnight at 4 °C. After filtering out the BioBeads, proteoliposomes were diluted with 100 mM KPi (pH 7.5) 200 mM (glucose or fructose), and then collected by ultracentrifugation, at 200,000 × g and 4 °C, for 1 hour. The proteoliposomes pellet was resuspended in the above buffer so that O.D.600nm was ~30.
To measure hexose transport, we utilized entrance counter-flow assay. Transport was performed in a volume of 100 μL of 100 mM KPi (pH 7.5) buffer containing radioactive ^14C-hexose (4 μM fructose or 5 μM glucose) with inhibitors added before initiation of transport. Radioactive substrate uptake in GLUT1 and GLUT5 (wild-type or mutant) proteoliposomes was constant between 1 and 2 mins. The reaction was started by the addition of 3 μL concentrated proteoliposomes to the above solution and incubated at room temperature; the transport was stopped after one minute by addition of ice-chilled quench buffer [100 mM KPi (pH 5.5) and 100 mM LiCl]. The solution was filtered through a 0.4 μm pore size cellulose nitrate membrane filter (Whatman), and the filter was washed three times with quench buffer. The membrane filter was placed into a vial filled with BioSafe II scintillation liquid (Research Products International Corp.), and radioactivity was quantified with LS 6500 scintillation counter (Beckman). […] The transport assays were unaffected by 5% DMSO. Data is presented as relative activity normalized to radioactivity of no inhibitor added as 100% and empty proteoliposomes as 0%. Kinetic parameters were fitted by nonlinear algorithm plots using Prism (GraphPad Software).

[2] = parameters: method as in PMID 22133440; conditions: cited from earlier work
[3] = target: T2, human GLUT5 (Homo sapiens, UniProt P22732); experiment: entrance counter-flow transport assay, GLUT5-mediated fructose transport in proteoliposomes; format: biochemical; conditions: added at 20 mM
T2 construct: Full length DNA was subcloned into pFastBac1 (Life Technologies) vector with a N-terminal hexahistidine tag; hexahistidine (thrombin-cleavable) (N, cleaved yes); made in house; host or cells: Sf21 insect cells (baculovirus, pFastBac1)
T2 sequence (P22732 1-501): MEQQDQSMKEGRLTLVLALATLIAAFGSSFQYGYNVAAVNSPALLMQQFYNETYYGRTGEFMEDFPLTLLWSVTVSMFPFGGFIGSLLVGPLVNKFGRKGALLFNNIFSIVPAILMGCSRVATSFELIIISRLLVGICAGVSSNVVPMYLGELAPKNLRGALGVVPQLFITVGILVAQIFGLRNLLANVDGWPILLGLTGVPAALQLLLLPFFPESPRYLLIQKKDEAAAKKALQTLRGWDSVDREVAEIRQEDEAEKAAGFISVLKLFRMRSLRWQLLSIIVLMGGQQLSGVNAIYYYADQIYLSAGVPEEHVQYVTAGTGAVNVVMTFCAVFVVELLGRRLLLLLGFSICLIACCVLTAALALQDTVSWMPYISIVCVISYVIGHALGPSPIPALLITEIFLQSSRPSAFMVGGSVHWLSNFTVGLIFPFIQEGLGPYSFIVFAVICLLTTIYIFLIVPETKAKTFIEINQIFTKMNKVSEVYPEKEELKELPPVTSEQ
Description: Human GLUT1 and GLUT5 were expressed recombinantly in insect cell culture. The purified proteins were reconstituted into proteoliposomes. To measure the inhibition of GLUT1 or GLUT5 transport activity we used entrance counter-flow transport assay.
as §1
To measure hexose transport, we utilized entrance counter-flow assay. Transport was performed in a volume of 100 μL of 100 mM KPi (pH 7.5) buffer containing radioactive ^14C-hexose (4 μM fructose or 5 μM glucose) with inhibitors added before initiation of transport. […] The reaction was started by the addition of 3 μL concentrated proteoliposomes to the above solution and incubated at room temperature; the transport was stopped after one minute by addition of ice-chilled quench buffer [100 mM KPi (pH 5.5) and 100 mM LiCl]. The solution was filtered through a 0.4 μm pore size cellulose nitrate membrane filter (Whatman), and the filter was washed three times with quench buffer. The membrane filter was placed into a vial filled with BioSafe II scintillation liquid (Research Products International Corp.), and radioactivity was quantified with LS 6500 scintillation counter (Beckman). […] Data is presented as relative activity normalized to radioactivity of no inhibitor added as 100% and empty proteoliposomes as 0%. Kinetic parameters were fitted by nonlinear algorithm plots using Prism (GraphPad Software).

[4] = parameters: method as in PMID 22133440; conditions: cited from earlier work; remark: listed apart in the source
[5] = test system: GLUT1; conditions: read-out: GLUT1 Km for glucose; cited from earlier work
[6] = test system: GLUT5; parameters: method as in PMID 9166863; conditions: read-out: GLUT5 Km for fructose; cited from earlier work
[7] = test system: GLUT1; parameters: method as in PMID 9286080; conditions: cited from earlier work
[8] = test system: human GLUT2; parameters: method as in PMID 1716731; conditions: cited from earlier work
[9] = test system: human GLUT4; parameters: method as in PMID 1716731; conditions: cited from earlier work
[10] = test system: glucose/H+ symporter GlcPSe; parameters: method as in PMID 24127585; conditions: cited from earlier work
[11] = test system: GLUT5; parameters: method as in PMID 9166863; conditions: cited from earlier work

Compound: Astragalin-6-glucoside [Ast6G]
- inhibition of GLUT1 glucose transport activity [1]: not inhibited; also recorded: did not inhibit
- redox scavenging properties compared to astragalin [2]: increased redox scavenging properties

Compound: maltohexaose
- inhibition of GLUT5 fructose transport activity [3]: neither maltose nor maltohexaose (6 glucose units) inhibited GLUT5; also recorded: neither maltohexaose nor astragalin alone inhibit GLUT5
- inhibition of GLUT1 glucose transport activity [1]: not inhibited

Compound: O=c1c(O[C@@H]2O[C@H](CO)[C@@H](O)[C@H](O)[C@H]2O)c(-c2ccc(O)cc2)oc2cc(O)cc(O)c12 [astragalin]
- inhibition of GLUT5 fructose transport activity [3]: neither maltohexaose nor astragalin alone inhibit GLUT5
- solubility in water [4]: insoluble in water

Compound: OC[C@H]1OC(O)[C@H](O)[C@@H](O)[C@@H]1O (some centres unmarked) [glucose]
- Km [5]: ~3 mM

Compound: OC[C@H]1O[C@H](O[C@H]2[C@H](O)[C@@H](O)C(O)O[C@@H]2CO)[C@H](O)[C@@H](O)[C@@H]1O (mixture of isomers) [maltose]
- inhibition of GLUT5 fructose transport activity [3]: neither maltose nor maltohexaose (6 glucose units) inhibited GLUT5
- GLUT1 transport activity (relative glucose transport) ([1]; 20 mM compound): ~ 80%

Compound: O=C(CO)[C@@H](O)[C@H](O)[C@H](O)CO [fructose]
- Km [6]: ~10 mM

Compound: C=C1[C@@H](C)[C@H]2[C@H](Cc3ccccc3)NC(=O)[C@]23OC(=O)/C=C/[C@H](O)CCC[C@@H](C)C/C=C/[C@H]3[C@@H]1O [cytochalasin B]
- inhibition of GLUT1 activity [7]: inhibitors
- inhibition of human GLUT2 [8]: inhibit
- inhibition of human GLUT4 [9]: inhibit
- inhibition of bacterial glucose/H+ symporter GlcPSe [10]: inhibit
- inhibition of GLUT5 [11]: not GLUT5

Compound: C=C[C@@]1(C)CC(=O)[C@]2(O)[C@@]3(C)[C@@H](O)CCC(C)(C)[C@@H]3[C@H](O)[C@H](OC(C)=O)[C@@]2(C)O1 [forskolin]
- inhibition of GLUT1 activity [7]: inhibitors
- inhibition of human GLUT2 [8]: inhibit
- inhibition of human GLUT4 [9]: inhibit
- inhibition of bacterial glucose/H+ symporter GlcPSe [10]: inhibit
- inhibition of GLUT5 [11]: not GLUT5
